“Also recorded” adds a separate entry of the source. Where a SMILES comes first, the peptide text is derived from it. The star is where a group is joined. Cbz = O=C(OCc1ccccc1)*; CH2F = FC*

The subject of test [1] is bovine cartilage explants. The test is described as follows: Load-induced chondrocyte apoptosis (TUNEL) in mechanically injured bovine cartilage explants. It counts as cell-based. The settings on record: for Mean (±SD) apoptosis rates, Loaded + Agent: bovine femoral condyle cartilage, loaded at 23 MPa, rate = percentage of TUNEL positive cells, n = 8 to 10. From the text:
Macroscopically normal weight bearing portions of freshly slaughtered skeletally mature bovine femoral condyles were selected from animals between 2 and 6 years of age (Animal Technologies, Austin, Tex.). Only joints without visible signs of degeneration or aging were selected. Using sterile techniques, fall thickness cartilage was separated from underlying subchondral bone with a scalpel and 5 mm diameter cylindrical explants, ranging from 1 to 1.8 mm in height, cored out using a dermal punch (Acuderm, Inc., Ft. Lauderdale, Fla.). Explants taken from adjacent sites were used as matched controls for each group in each experiment to minimize variation in cartilage response due to differences in thickness and location within the joint. Each explant was weighed and allowed to stabilize at 37° C. and 5% CO2 for 48 hours in 1 ml of Dulbecco's modified Eagle's medium (DMEM) supplemented with 10% fetal bovine serum (FBS), L-glutamine, antibiotics and 50 μg/ml ascorbic acid.
Full thickness bovine cartilage explants, 5 mm in diameter, were subjected to a single static mechanical load of 7, 14 or 23 MPa for 500 msec. This model simulates traumatic cartilage injury and the loads were similar in magnitude to those generated during traumatic joint injury. Glycosaminoglycan (GAG) release and percent apoptotic cells were measured. The effect of a pan-caspase inhibitor, z-VAD.fmk [benzyloxycarbonyl-Val-Ala-Asp (OMe) fluoromethylketone] in preventing chondrocyte apoptosis was determined. z-VAD.fmk is a fluoromethylketone irreversible inhibitor of a broad spectrum of caspases. […] The percentage of apoptotic chondrocytes was related to load intensity and correlated with the level of GAG release from cartilage. […] This identifies a new approach to limit traumatic cartilage injury and the subsequent development of secondary osteoarthritis.
A model to simulate acute joint injury was used in this study based on injury models reported by Repo and Finlay, and Jeffrey et al. (Repo, et al. (1977) J. Bone Joint Surg. Am. 59A, 1068-1076, Jeffrey, et al. (1995) Arch. Biochem. Biophys. 322, 87-96). Although these reported models impacted cartilage using drop towers, a more controlled method was chosen for applying and maintaining stress or strain as follows. An Instron 8511 servohydraulic testing machine (Instron Corporation, Boston, Mass.) was used to mechanically load the cartilage explants. Explants were transported from the incubator to the Instron machine in sealed cell culture dishes. The explant was centralized on a stainless steel loading platform and a radially unconfined compressive load was applied through an impermeable stainless steel platen. A small preload (0.1 MPa) was applied for 2 minutes, followed by a single 500 msec trapezoidal loading waveform at the selected stress. The stress rose from 0.1 MPa to the chosen stress level in 100 msec and was maintained for 500 msec. Three stress levels were chosen to represent acute joint injury. 7 MPa has been reported to be the upper limit of physiologic stress developed during activities of daily living (von Eisenhart, et al. (1999) J. Orthop. Res. 17, 532-539). 23 MPa is the stress above which the underlying bone has been reported to fracture (Haut (1989) J. Orthop. Res. 7, 272-280). Control explants were placed in the loading apparatus but not loaded. Both control and loaded explants were re-cultured in fresh culture media immediately after loading. Stress and strain data were recorded during the test. […]

For another test, the system named is human cartilage explants. The experiment in a line: Load-induced chondrocyte apoptosis (TUNEL) in mechanically injured human cartilage explants. The settings on record: for Mean (±SD) apoptosis rates, Loaded + Agent: human cartilage (femoral condyles and tibial plateaus), n = 8 to 10. Format: cell-based. An excerpt: Macroscopically normal tibial and femoral articular surfaces were selected from human cadaver donors between 18 and 45 years of age. Using sterile techniques, full thickness cartilage was separated from underlying subchondral bone with a scalpel. 5 mm diameter cylindrical explants, ranging from 2 to 2.8 mm in thickness, cored out using a dermal punch (Acuderm, Inc., Ft. Lauderdale, Fla.). Explants taken from adjacent sites were used as matched controls for each group in each experiment to minimize variation in cartilage response due to differences in thickness and location within the joint. Each explant was weighed and allowed to stabilize at 37° C. and 5% CO2 for 48 hours in Dulbecco's modified Eagle's medium (DMEM) supplemented with 5% fetal bovine serum (FBS), L-glutamine, antibiotics and […] ascorbic acid.
An Instron 8511 servohydraulic testing machine (Instron Corporation, Boston, Mass.) was used to mechanically load the cartilage explants. Explants were transported from the incubator to the Instron machine in sealed cell culture dishes. The total time duration of loading for a single experiment varied from approximately 1 to 2 hours depending on the number of samples. […] Stress and strain data were recorded during the test.
To determine whether caspase inhibitors could prevent apoptosis, explants were cultured in […] z-VAD.fmk (a broad spectrum caspase inhibitor) immediately after injury (30% strain level). Percentage apoptosis was measured at 96 hours post-injury in three groups (control, loaded, and loaded with z-VAD.fmk) with ten explants each in two separate experiments.
Explants loaded as described above were fixed in 10% buffered formalin. […] This was detected by immunohistochemical staining with M30 (Cytodeath, Boehringer Mannheim, Eugene, Oreg.), a monoclonal antibody that recognizes the neo-epitope exposed in early apoptosis.
In an additional study the apoptosis response of human articular cartilage to mechanical stress was examined. […] GAG release and percentage of cells undergoing apoptosis were measured at 96 hours after injury. […]

For test [2], the system named is rabbits with ligament transection. The experiment in a line: Intraarticular injection of caspase inhibitor in rabbits with anterior cruciate ligament transection (ACLT). It counts as in vivo, New Zealand White rabbits. Here is the method:
A pilot study was performed to assess feasibility and efficacy of caspase inhibition in vivo. Eight New Zealand White rabbits were divided into anterior cruciate ligament transection (ACLT) and ACLT+caspase inhibitor (CI) groups. Both groups underwent bilateral ACLT. The ACLT+CI group was treated with intra-articular injections of 25 μg of z-VAD.fmk three times per week for six weeks while the control group received saline injections. Rabbits were euthanised at six weeks and femoral and tibial articular cartilage evaluated by India ink staining and histologic Mankin grading after Safranin-O stain.
Histologically, more knees from the ACLT group had higher Mankin scores. 87% (⅞) ACLT knees had grades 5 or higher, while 50% ( 4/8) ACLT+CI knees were graded 5 or higher. The India ink stained femoral condyles were photographed and digital images were used to quantify the surface areas of the lesions.

The test system of test [3] is bovine cartilage explants. The experiment in a line: Glycosaminoglycan (GAG) release assay (dimethylene blue) in injured bovine cartilage explants. The settings on record: loaded, z-VAD.fmk 100 μM, 48 hours. It counts as cell-based. As for the experimental part: Glycosaminoglycan release assay. To estimate GAG depletion and release, the concentration of sulfated glycosaminoglycans was measured using 1,9-Dimethylene Blue (DMMB) as a monitor of spectrophotometric changes which occur during the formation of the sulfated GAG dye complex (Fardale, et al. (1986) Biochim. Biophys. Acts. 883, 173-177, Goldberg, et al. (1993) Agents Actions 39 Spec No, C163-C165). For GAG content measurement, samples were digested in papain and collagenase and the concentration of sulfated GAG measured using DMMB. To generate a standard curve, chondroitin-6-sulfate (Sigma, St. Louis, Mo.) was used at concentrations between 1 and 200 μg/ml. GAG released in media was normalized to the pooled mean GAG content of Control (uninjured) cartilage explants and expressed as a percentage of total GAG content.
To determine whether apoptosis could be prevented by caspase inhibition, 12 explants were loaded at 23 MPa (High Load) and cultured for 48 hours. […] Six more explants were used as non-loaded controls. Percent apoptosis and GAG release in media was measured as described above.
Release of sulfated glycosaminoglycans (GAG) was analyzed as a measure of the extent of damage sustained by the explant. […] GAG depletion was assessed by dimethylene blue binding assays of the culture supernatants and this correlated with the reduced of safranin O staining of the cartilage sections.

Consider “IGF-1: agent tested for pharmacologic modulation of apoptosis after cartilage injury in vitro”, for which the figures for the “Mean (±SD) apoptosis rates, Loaded + Agent” value (shortened to “Mean (±SD) apoptosis rates”) (in test [1]; with human cartilage explants (loaded at 30% strain)) were 42 (±10.9) and 10 (±6.2), respectively.
As to `C[C@@H]1C[C@H]2[C@@H]3CCC4=CC(=O)C=C[C@]4(C)[C@@]3(F)[C@@H](O)C[C@]2(C)[C@@]1(O)C(=O)CO` [Dexameth.], the “Mean (±SD) apoptosis rates” value in test [1] is 47 (±11.2).
For `COC(=O)CC(NC(=O)C(C)NC(=O)C(NC(=O)OCc1ccccc1)C(C)C)C(=O)CF` (stereo not drawn) [z-VAD.fmk, benzyloxycarbonyl-Val-Ala-Asp (OMe) fluoromethylketone] (Cbz-Val-Ala-Asp(OMe)-CH2F; configuration not given here), the “reduction in the apoptosis rate” value in test [1] (bovine explants, high and intermediate load groups, vs loaded without agent) was over 50%. In addition, the “effect on chondrocyte apoptosis after mechanical injury” value in test [1] (bovine explants, single static load, 500 msec) is “reduced chondrocyte apoptosis after mechanical injury”. Further, the “Mean (±SD) apoptosis rates” value is given as 31 (±13.9) in test [1] and 34 (±10.2)* in the test with human cartilage explants (loaded at 23 MPa (footnote *)). Besides, the “reduction of the size (surface area) of the cartilage lesions” value in test [2] (rabbit ACLT, India ink stained femoral condyles, digital images, six weeks, 25 μg intra-articular three times per week) is given as about 80%. The “India ink grade of cartilage lesions” value in test [2] (rabbit ACLT, six weeks, 25 μg intra-articular three times per week (ACLT saline: grade III to IVa)) is reported as “ranged from II (minimum fibrillation), with only one rabbit (two knees) having a Grade III to IVa lesion”. The “area of cartilage lesions under India ink examination” value in test [2] (rabbit ACLT, six weeks, vs ACLT saline group) is listed as “lesions that were smaller in area”. The “knees with histologic Mankin grades 5 or higher” value in test [2] (rabbit bilateral ACLT, 25 μg intra-articular three times per week for six weeks, 4/8 knees (ACLT saline 87%)) is 50%. Besides, in the test with human cartilage explants (human explants, 30% strain, cultured in 100 mM z-VAD.fmk after injury, 96 hours post-injury, p<0.05), the “reduction in apoptosis rates” value turned out to be 50%. The “effect on GAG release / GAG depletion after mechanical injury” value in test [3] is on record as “reduction in GAG release; also recorded: normalization of the GAG depletion”.

Source of the values: patent US20020183258A1, “Process of inhibiting cell death in injured cartilage” (The Scripps Research Institute, priority 2001, published 2002).
